PMC11902257, “Antiprotozoal Aminosteroids from Pachysandra terminalis” (Molecules, 2025)
Converted amounts (≈) assume the structure as drawn. “And” between values parts separate entries of the source, which are not always exact repeats. Equal entries are not always repeated. Where two headings read alike, the source gives them in different places.

What was measured:
Type in all cases: cell-based
[1] = test system: Plasmodium falciparum (Pf) NF54 strain; test: in vitro antiplasmodial assay, 3H-hypoxanthine incorporation, erythrocytic stages; conditions: for IC50: Plasmodium falciparum; for SI (Pf): Selectivity index IC50(Cytotox)/IC50(Pf)
Procedure: Plasmodium falciparum (Pf): Tests were performed against erythrocytic stages of the drug-sensitive NF54 strain. The NF54 strain was obtained from F. Hoffmann-La Roche Limited (Basel, Switzerland). The strain NF54 was originally derived from a patient living near Schiphol Airport, Amsterdam, who had never left the Netherlands. The assay was performed using a 3H-hypoxanthine incorporation assay. Serial compound dilutions were prepared with the medium as indicated above and then added in 96-well plates to parasite cultures incubated in the medium previously described, consisting of RPMI 1640 supplemented with 0.5% ALBUMAX® II, 25 mM Hepes, 25 mM NaHCO3 (pH 7.3), 0.36 mM hypoxanthine, and 100 μg/mL neomycin. The plates were incubated in a humidified atmosphere at 37 °C, 4% CO2, 3% O2, and 93% N2. After 48 h, 0.25 μCi of 3H-hypoxanthine was added to each well. Incubation was continued under identical conditions for a further 24 h. The plates were then harvested using a Betaplate™ cell harvester (Wallac, Zurich, Switzerland). The red blood cells were transferred onto a glass fiber filter and washed with distilled H2O. After drying, filters were inserted into a plastic foil with 10 mL of scintillation fluid and counted with a Betaplate™ liquid scintillation counter (Wallac, Zurich, Switzerland). Data were treated according to [44] (see below). The positive control was chloroquine.
(§1) Bioassay data and statistical methods: In all cases, the readout data were plotted in Microsoft Excel. Half-maximal inhibitory concentrations (IC50 values) were calculated from the sigmoidal dose-response curves by linear regression. Two independent replicates of the assay were performed in all cases, and the results were expressed as arithmetic mean ± deviation from the mean.

[2] = test system: Trypanosoma brucei rhodesiense (Tbr) STIB900 strain; test: in vitro antitrypanosomal assay, bloodstream forms, resazurin; conditions: for SI(Tbr): Selectivity index IC50(Cytotox)/IC50(Tbr); for IC50: Trypanosoma brucei
Procedure: Trypanosoma brucei rhodesiense (Tbr): The STIB900 strain is a derivative of the STIB704 strain isolated from a patient in Ifakara, Tanzania, in 1982 [43]. The bloodstream forms were cultivated as axenic culture in HMI-9 medium, supplemented with 15% heat-inactivated horse serum. Cultures were maintained at 37 °C in an atmosphere of 5% CO2. Test compounds were dissolved in DMSO (10 mg/mL), and serial drug dilutions of eleven 3-fold dilution steps covering a range from 100 to 0.002 μg/mL were prepared in a 96-well plate. Bloodstream-form of T. b rhodesiense strain STIB900 (2 × 10^3/well) was added into the wells. After 68 h incubation, 10 μL of resazurin solution (12.5 mg resazurin in 100 mL 1xPBS) was added per well, and plates were incubated for an additional 4 h. Subsequently, the plates were read with a Spectramax Gemini EM microplate fluorometer (Molecular Devices, San Jose, CA, USA) using an excitation wavelength of 536 nm and an emission wavelength of 588 nm. Data were treated according to [44] (see below). Melarsoprol was used as a positive control.
as §1

[3] = cytotoxicity against L-6 rat skeletal myoblasts, resazurin
Procedure: Cytotoxicity against L-6 rat skeletal myoblasts: The L6 rat skeletal myoblast cell line used for cytotoxicity tests was obtained from the American Type Culture Collection (ATCC, Manassas, VA, USA) as ATCC-CRL-1458 [50]. The cells were cultivated in RPMI 1640 medium supplemented with 1% L-glutamine (200mM) and 10% fetal bovine serum. Cultures were maintained at 37 °C in an atmosphere of 5% CO2. Assays were performed in 96-well plates, each well containing RPMI 1640 medium supplemented with 1% L-glutamine (200 mM), 10% fetal bovine serum, and 2 × 10^3 L-6 cells/well. Plates were incubated at 37 °C under a 5% CO2 atmosphere for 24 h. Compounds were dissolved in DMSO (10 mg/mL). After 24 h, serial drug dilutions of eleven 3-fold dilution steps covering a range from 100 to 0.002 μg/mL were prepared, and the plates were incubated at 37 °C under 5% CO2 for 70 h. After 70 h incubation, 10 μL of resazurin solution (12.5 mg resazurin in 100 mL 1xPBS) was added per well, and plates were incubated for an additional 2 h. After that, the plates were read with a Spectramax Gemini EM microplate fluorometer (Molecular Devices, San Jose, CA, USA) using an excitation wavelength of 536 nm and an emission wavelength of 588 nm. Data were treated according to [44] (see below). Podophyllotoxin served as a positive control.
as §1

[4] = NF54, pure compounds, tested as mono- or bis-trifluoroacetates where marked, read-out: IC50 Pf (converted)
[5] = NF54, values in brackets, calculated with the molecular masses of the corresponding salts, read-out: IC50 Pf (converted)
[6] = pure compounds, tested as mono- or bis-trifluoroacetates where marked, read-out: IC50 Tbr (converted)
[7] = values in brackets, calculated with the molecular masses of the corresponding salts, read-out: IC50 Tbr (converted)
[8] = pure compounds, tested as mono- or bis-trifluoroacetates where marked

Row | SMILES | IC50 [1, 4] | IC50 [1, 5] | SI (Pf) ([1]; pure compounds) | SI(Tbr) ([2]; pure compounds) | IC50 [2, 6] | IC50 [2, 7] | IC50 at 70 h [3] | IC50 at 70 h ([3]; crude extracts and acid/base fractions, L6 cells, mean of two determinations ± deviation, read-out: IC50 Cytotox (converted)) | IC50 ([2]; read-out: IC50 Tbr) | IC50 ([2]; read-out: IC50 Tbr [µg/mL]) | IC50 ([1]; NF54, read-out: IC50 Pf) | IC50 ([1]; NF54, read-out: IC50 Pf [µg/mL]) | IC50 Pf [1, 8] | IC50 Tbr [2, 8]
1 | CC(C)=CC(=O)N[C@@H]1[C@H](O)[C@@H]2CC[C@@H]3[C@H](CC[C@]4(C)[C@@H]([C@H](C)N(C)C)CC[C@@H]34)[C@@]2(C)C[C@@H]1O [Compound 16, 4β-Hydroxy-hookerianamide N] | 6.1 ± 0.5 µg/mL | 10.6 µM | 7 | 6 | 8.1 ± 0.6 µg/mL | 14.1 µM | 45 µg/mL and 79 µM |  |  |  |  |  |  | 
2 | COc1cc([C@@H]2c3cc4c(cc3[C@H](O)[C@H]3COC(=O)[C@H]23)OCO4)cc(OC)c1OC [Podophyllotoxin, reference compound] |  |  |  |  |  |  |  | 9 ± 1 ng/mL (≈ 0.0217 µM) |  |  |  |  |  | 
3 | CC(=O)N(C)[C@@H](C)[C@H]1CC[C@H]2[C@@H]3CC[C@H]4C[C@@H](N(C)C)CC[C@]4(C)[C@H]3CC[C@]12C [Compound 14, Epipachysamine A] | 18 ± 1 µg/mL | 36 µM | 0.6 | 5 | 2.14 ± 0.05 µg/mL | 4.14 µM | 12 µg/mL and 23 µM |  |  |  |  |  |  | 
4 | C[C@@H]([C@H]1CC[C@H]2[C@@H]3CC[C@H]4[C@H](O)[C@@H](O)CC[C@]4(C)[C@H]3CC[C@]12C)N(C)C [Compound 11, Terminaline] | 3 ± 1 µg/mL | 7 µM | 8 | 5 | 5.9 ± 0.3 µg/mL | 12.4 µM | 28 µg/mL and 60 µM |  |  |  |  |  |  | 
5 | C[C@@H]([C@H]1CC[C@H]2[C@@H]3CC=C4C[C@@H](NC(=O)c5cccnc5)CC[C@]4(C)[C@H]3CC[C@]12C)N(C)C [Compound 5, Pactermine A] | 0.91 ± 0.02 µg/mL | 1.34 µM | 6 | 3 | 1.93 ± 0.06 µg/mL | 2.85 µM | 5.8 µg/mL and 8.6 µM |  |  |  |  |  |  | 
6 | C[C@@H]([C@H]1CC[C@H]2[C@@H]3CC[C@H]4C[C@@H](N(C)C)CC[C@]4(C)[C@H]3CC[C@]12C)N(C)C [Compound 12, N-methyl-desacyl-epipachysamine A] | 2.5 ± 0.3 µg/mL | 4.1 µM | 3 | 3 | 2.3 ± 0.2 µg/mL | 3.9 µM | 7 µg/mL and 11 µM |  |  |  |  |  |  | 
7 | CN[C@@H](C)[C@H]1CC[C@H]2[C@@H]3CC=C4C[C@@H](N(C)C)CC[C@]4(C)[C@H]3CC[C@]12C [Compound 2, 5,6-Dehydro-desacyl-epipachysamine A] | 0.898 ± 0.002 µg/mL | 1.53 µM | 21 | 10 | 1.9 ± 0.2 µg/mL | 3.2 µM | 19 µg/mL and 33 µM |  |  |  |  |  |  | 
8 | CN[C@@H](C)[C@H]1CC[C@H]2[C@@H]3CC[C@H]4C[C@@H]([N+](C)(C)CCl)CC[C@]4(C)[C@H]3CC[C@]12C [Compound 6, N3-chloromethyl-desacyl-epipachysamine A] | 0.25 ± 0.03 µg/mL | 0.39 µM | 346 | 74 | 1.2 ± 0.4 µg/mL | 1.9 µM | 87 µg/mL and 136 µM |  |  |  |  |  |  | 
9 | C[C@@H]([C@H]1CC[C@H]2[C@@H]3CC[C@H]4[C@@H](O)[C@@H](NC(=O)c5ccccc5)[C@@H](O)C[C@]4(C)[C@H]3CC[C@]12C)N(C)C [Compound 18, 2β,3β,4β-Diapachysamine K] | 47 ± 7 µg/mL | 80 µM | 0.4 | 3 | 5.9 ± 0.4 µg/mL | 9.9 µM | 17 µg/mL and 28 µM |  |  |  |  |  |  | 
10 | CC1=CC(=O)CC(C)(C)C1CCC(C)N(C)C (stereo not shown) [Compound 1] | 0.93 ± 0.07 µg/mL | 3.91 µM | 51 | 8 | 6.2 ± 0.9 µg/mL | 26.2 µM | 47 µg/mL and 198 µM |  |  |  |  |  |  | 
11 | C[C@@H]([C@H]1CC[C@H]2[C@@H]3CC[C@H]4C[C@]5(CC[C@]4(C)[C@H]3CC[C@]12C)c1ccccc1C(=O)N5C)N(C)C [Compound 15, Spiropachysine] | 3 ± 1 µg/mL | 6 µM | 2 | 3 | 2.21 ± 0.04 µg/mL | 3.83 µM | 7.3 µg/mL and 12.7 µM |  |  |  |  |  |  | 
12 | CN[C@@H]1CC[C@@]2(C)[C@@H](CC[C@@H]3[C@@H]2CC[C@]2(C)[C@@H]([C@H](C)N(C)C)CC[C@@H]32)C1 [Compound 8, Pachysamine A] | 1.82 ± 0.06 µg/mL | 3.09 µM | 6 | 13 | 0.8 ± 0.1 µg/mL | 1.3 µM | 10.4 µg/mL and 17.7 µM |  |  |  |  |  |  | 
13 | C[C@@H]([C@H]1CC[C@H]2[C@@H]3CC=C4C[C@@H](N(C)C)CC[C@]4(C)[C@H]3CC[C@]12C)N(C)C [Compound 13, Sarcodinine] | 4.6 ± 0.7 µg/mL | 7.7 µM | 2 | 4 | 2.6 ± 0.4 µg/mL | 4.3 µM | 11 µg/mL and 18 µM |  |  |  |  |  |  | 
14 | Nc1nc(N)nc(Nc2ccc([As]3SCC(CO)S3)cc2)n1 (stereo not shown) [Melarsoprol, reference compound] |  |  |  |  |  |  |  |  | 0.007 ± 0.002 µg/mL | 0.007 ± 0.002 µg/mL |  |  |  | 
15 | CCN(CC)CCCC(C)Nc1ccnc2cc(Cl)ccc12 (stereo not shown) [Chloroquine, reference compound] |  |  |  |  |  |  |  |  |  |  | 0.002 µg/mL | 0.002 µg/mL |  | 
16 | O=C(O)C(F)(F)F [Trifluoroacetate, reference compound] |  |  |  |  |  |  |  |  |  |  |  |  | >100 µg/mL | >100 µg/mL
